Data on one compound can be found in patent US20110239322A1, “IN VITRO FLOWERING/SEED SET LEADING TO PARTIAL OR COMPLETE MALE STERILITY IN GRASSES” (THE PENN STATE RESEARCH FOUNDATION, priority 2010, published 2011).

Molecules are shown by their SMILES.

The assay relates to shoot explant. The experiment in a line: in vitro flowering on flowering medium (MS medium with growth regulators). On the set-up: species or system grasses. The procedure:
In a preferred embodiment, seeds are washed in running tap water with a drop of soap for 5 mins and sterilized with 95% ethyl alcohol for 2 min followed by a 15 minute treatment with 10% bleach and washed three times for 5 min intervals with sterile distilled water. Ten seeds are germinated in each petriplate with MS medium with […]. After germination on MS 2,4-D, for a period of time, such as 3-7 days in the dark at 24±2° C. The flowering medium preferably comprises a substituted phenylurea cytokinin analog, such as TDZ and a cytokinin such as BAP.
Cultures are incubated at 24±2° C. under a 16/8-hour […] photoperiod provided by cool-white fluorescent lights at a quantum flux density of 30 μmol s^−1 m^−2. Following a passage of time, typically within 2 weeks, callus induction occurs, having taken the first internode of the germinated seed (on MS 4 mg/L 2,4-D medium). After about two weeks, the callus is transferred to regeneration medium, to allow for shoot induction (MS, 0.5 mg/L BAP, 0.1 mg/L 2,4-D, 38 mg/L CuSO4). During this time (shoot regeneration), cultures are incubated with necessary dark photoperiodic conditions to promote growth and to mimic natural growing conditions. Additionally, over time it may be necessary to subculture the explants with fresh MS, BAP, 2,4-D, CuSO4. […]

On to `O=C(Nc1ccccc1)Nc1cnns1` [TDZ, 1-phenyl-3-(1,2,3-thiadiazol-5-yl)urea], for which the “flower production on shoot explant” value (TDZ 2.0 mg/L combined with BAP 1.0 mg/L in flowering medium) is reported as “flowers are produced directly on a shoot explant”. Also, the “flower production on shoots developed from callus” value (TDZ 1.0-2.0 mg/L without BAP) is “produces flowers on shoots developed from callus”.
